Results: patent US20240415835A1, “COMPOSITIONS COMPRISING AN ERK INHIBITOR” (Otsuka Pharmaceutical Co., Ltd., priority 2021, published 2024)
In brackets after ≈: the same amount, converted by molar mass.

Assays:
[1] = Primate study, 3-way crossover, oral administration; assay type: in vivo; settings: monkeys, oral 20 mg/kg, three dosing occasions
Method: A total of 6 animals were used in a 3-way (2+2+2) crossover design where, on each of the three dosing occasions, 2 of the animals were administered Compound I in powder in bottle (PiB) suspension in vehicle for reconstitution (20 mg/kg), 2 of the animals were administered Compound I solid dispersion suspension (20 mg/kg) of Example 1, while another 2 animals were administered Compound I in a tablet form (20 mg/kg) of Example 2. The vehicle for reconstitution comprised Propylene Glycol USP 80.0% w/w; Ethanol USP 10.0% w/w; Vit E TPGS USP 10.0% w/w for a total of 100.0% w/w.
Dosing for this study was conducted in fasted state. […]
The animals were observed closely during the first 12 hrs after each dosing and once daily on non-dosing days. Body weights were measured and recorded prior to dosing and blood samples for pharmacokinetic profiling were taken at the pre-defined time points for all animals. […] All plasma samples from this study were analyzed by this method and plasma concentration of Compound I were expressed in terms of ng/mL.
The error bars refer to standard deviation. […] AUClast refers to the area under the concentration-time curve from dosing (time 0) to the time of the last measured concentration (24 hours).

[2] = ultracentrifuge free-drug test (drug speciation); assay type: physicochemical
Method: The ultracentrifuge free-drug analysis is used to determine the species of dissolved drug that are present for each formulation. This test is performed at several timepoints, i.e., 0, 30, 60 and 90 minutes, during the microcentrifuge test, and it consists of a centrifugation step at 300,000 g that removes any colloidal species that are present, leaving only the free drug and drug in micelle species. In combination with the microcentrifuge data, this allows for determination of free drug and colloidal content at the timepoint where both are tested.

[3] = gastric to intestinal (G-IB) transfer microcentrifuge dissolution test; assay type: physicochemical
Method: The solid dispersions described in Example 1 were evaluated in two non-sink dissolution tests to evaluate various aspects of the formulations and how they might be differentiated. The two dissolution tests that were evaluated include a gastric to intestinal (G-IB) transfer microcentrifuge dissolution test and an ultracentrifuge free-drug test.
The gastric-to-intestinal buffer (G-IB) transfer dissolution test is used to measure the supersaturation of drug above the solubility of bulk drug when dosed as a powder, first into media at a lower pH value to imitate a fasted stomach. After 30 minutes of exposure to the gastric media, the samples are transferred into the higher pH media as an imitation of the intestine. The drug concentrations measured in this test are a composite of free drug, drug in micelles, and drug suspended in solution as drug/polymer colloids.
The G-IB dissolution test is performed the same way, but with a 30 minute gastric exposure prior to transferring into the intestinal media. The intestinal media for the G-IB dissolution test is doubly concentrated in terms of buffering and bile salts, so that after the gastric transfer step, the final pH is 6.5 and SIF concentration is 0.5 wt %.
The microcentrifuge dissolution test separates the precipitate (undissolved drug) and total solubilized drug. Total solubilized drug consists of three solubilized species: freely solubilized drug, drug associated with bile salt micelles, and drug associated with polymer (drug-polymer colloids). These three species have different activities in vivo and differentiate formulations. The freely solubilized drug is the smallest species and is the most readily available for absorption. Freely solubilized drug can cross the unstirred mucous boundary layer and be absorbed into the blood through the epithelium. The drug associated with micelles diffuse across the unstirred mucous boundary layer and resupply free drug as it is absorbed. Finally, the drug-polymer colloids also resupply free drug as it is absorbed and can have a contribution to effective diffusion rate. These colloids can be important depending on the rate-limiting step for absorption.
A solid dispersion comprising Compound I: HPMCAS in a ratio of 1:2 (“33.3% HPMCAS”) was prepared from 2.7 grams of the free base hydrate crystalline form B of Compound I and 5.3 grams of HPMCAS (Shin Etsu, L grade, F particle size (≤10 microns particle size)), using a similar procedure of Example 1. Briefly, 2 mg test compound/mL in 0.9 mL gastric buffer was transferred to a final dose of 1 mg/mL in 1.8 mL of 0.5% SIF in PBS at pH 6.5 at room temperature to provide 1.8 mL total volume test solution. The samples were centrifuged at 15,800 g for 1 minute. At specified timepoint, 50 μL aliquot samples were diluted 6× with 50/50 acetonitrile/water and assayed by HPLC.
The solid dispersion was evaluated together with the 25% Compound I: HPMCAS solid dispersion (“25% HPMCAS”) and 95.3% Compound I (freebase hydrate, “Crystalline API”), using the G-IB dissolution test described in Example 3-1.

[4] = intestinal buffer, 0.5% SIF in PBS pH 6.5, 1 mg/mL

Compound: COc1cc(F)cc([C@@H](CO)NC(=O)[C@@H](C)N2Cc3ccc(-c4nc(NC5CCOCC5)ncc4Cl)cc3C2=O)c1 [Compound I, (2R)-2-(6-{5-chloro-2-[(tetrahydro-2H-pyran-4-yl)amino]pyrimidin-4-yl}-1-oxo-2,3-dihydro-1H-isoindol-2-yl)-N-[(S)-1-(3-fluoro-5-methoxyphenyl)-2-hydroxyethyl]propanamide]
- clinical signs as a result of treatment [1]: no clinical signs

Compound: COc1cc(F)cc([C@@H](CO)NC(=O)[C@@H](C)N2Cc3ccc(-c4nc(NC5CCOCC5)ncc4Cl)cc3C2=O)c1 [Crystalline API]
- Ultra1200 ([2]; ultracentrifuge): 19 µg/mL
- Ultra90 ([2]; ultracentrifuge, 90 minutes): 21 µg/mL
- CmaxGB ([3]; gastric buffer, 2 mg/mL, room temperature): 20000 ng/mL
- C1200 ([3]; intestinal buffer, 0.5% SIF in PBS pH 6.5): 21 µg/mL
- AUC4-90 IB [3, 4]: 1,610 min*μg/mL
- C90 IB [3, 4]: 21 µg/mL
- Cmax90 IB [3, 4]: 21000 ng/mL

Compound: COc1cc(F)cc([C@@H](CO)NC(=O)[C@@H](C)N2Cc3ccc(-c4nc(NC5CCOCC5)ncc4Cl)cc3C2=O)c1 [amorphous Compound I]
- solubility ([2]; pH 6.5, fassgf or other biorelevant, FIG. 2 speciation data from the dissolution test): ~15 µg/mL (≈ 25.7 µM)
